From PMC12671775 (PLOS Genetics, 2025)

What was measured:
[1] = target: T1, ChuaHNL (hydroxynitrile lyase, CHUA_005138) (Chamberlinius hualienensis, UniProt A0A0H5BR52); format: biochemical
T1 construct: N-terminal His-tagged, produced in Pichia pastoris

O=Cc1ccccc1 = assay: purified protein

Compound | Km [1] [mM] | Km (O=Cc1ccccc1) [mM]
N#CC(O)c1ccccc1 (racemic) [MAN, (R,S)-mandelonitrile] | 13.7 ± 2.35 | –
ChuaHNL (hydroxynitrile lyase, CHUA_005138) (Chamberlinius hualienensis) | – | 4.31 ± 0.771
